Experimental data from publication PMC5473807, “Distribution and kinetics of the Kv1.3-blocking peptide HsTX1[R14A] in experimental rats” (Scientific Reports, 2017).

Target: T1, mKv1.3 (Mus musculus, UniProt P16390)
T1 construct: expressed in transfected cells
Assay: Whole-cell patch-clamp block of Kv1.3 currents
Assay type: cell-based
Settings: L929 mouse fibroblasts stably expressing mKv1.3, room temperature, peak current at 40 mV, Hill fit, n = 3 cells per concentration, read-out: IC50 against Kv1.3
Procedure: L929 mouse fibroblast cells stably expressing mKv1.3[32] were gifts from Dr. K. George Chandy (University of California, Irvine). They were maintained in DMEM medium (Invitrogen, Carlsbad, CA) supplemented with 100 IU/mL penicillin, […] streptomycin, 2 mM L-glutamine, 10% heat-inactivated foetal bovine serum, and 0.5 mg/mL G418 (EMD Chemicals, Gibbstown, NJ).
Electrophysiology experiments were conducted at room temperature in the whole-cell configuration of the patch-clamp technique on a Port-a-Patch setup (Nanion, North Brunswick, NJ) linked to a HEKA EPC10USB amplifier (HEKA Instruments, Bellmore, NY). A holding potential of −80 mV was used for all recordings. Pipette resistances averaged 2.0 MΩ when filled with internal solution containing (in mM): 145 KF, 10 HEPES, 10 EGTA, and 2 MgCl2, pH 7.2, 290 mOsm. Kv currents were elicited every 30 s by 200-ms depolarising pulses from a holding potential of −80 mV to 40 mV. Kv1.3 currents were recorded in normal Ringer solution containing (in mM): 160 NaCl, 4.5 KCl, 2 CaCl2, 1 MgCl2, and 10 HEPES, pH 7.2, 300 mOsm. IC50 values and Hill coefficients were determined by fitting the Hill equation to the reduction of peak current by the drug at 40 mV.
Figure S2. […] (a) Whole-cell Kv1.3 currents measured by whole-cell patch-clamp in stably transfected L929 fibroblasts before (control) and after perfusion of 10 pM and 100 nM NOTA-HsTX1[R14A]. […]

T1 sequence (P16390 whole entry): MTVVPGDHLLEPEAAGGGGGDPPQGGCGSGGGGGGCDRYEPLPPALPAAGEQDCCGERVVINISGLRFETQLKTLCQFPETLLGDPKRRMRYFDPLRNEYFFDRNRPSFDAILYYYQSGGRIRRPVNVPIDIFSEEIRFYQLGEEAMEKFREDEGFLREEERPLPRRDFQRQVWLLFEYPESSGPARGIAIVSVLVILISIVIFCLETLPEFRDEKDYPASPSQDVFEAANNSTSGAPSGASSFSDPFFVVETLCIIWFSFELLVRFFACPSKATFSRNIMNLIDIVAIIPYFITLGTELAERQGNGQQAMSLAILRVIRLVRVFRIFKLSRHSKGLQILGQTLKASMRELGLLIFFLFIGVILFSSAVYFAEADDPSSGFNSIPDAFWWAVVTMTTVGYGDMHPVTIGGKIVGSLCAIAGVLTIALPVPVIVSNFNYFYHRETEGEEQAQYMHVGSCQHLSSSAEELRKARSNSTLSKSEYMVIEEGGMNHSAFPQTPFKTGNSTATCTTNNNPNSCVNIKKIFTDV

CSCC[C@@H]1NC(=O)[C@@H]2CSSC[C@H](NC(=O)[C@H](CO)NC(=O)[C@H](C)NC(=O)COCCOCCNC(=O)CN3CCN(CC(=O)O)CCN(CC(=O)O)CC3)C(=O)N[C@@H](CCCNC(=N)N)C(=O)N[C@@H]([C@@H](C)O)C(=O)N3CCC[C@H]3C(=O)N[C@@H](CCCCN)C(=O)N[C@@H](CC(=O)O)C(=O)N[C@H]3CSSC[C@H](NC(=O)[C@H](CCCCN)NC(=O)[C@H](CCCNC(=N)N)NC(=O)[C@H](CC(N)=O)NC1=O)C(=O)N[C@@H](CCCCN)C(=O)N[C@H]1CSSC[C@H](NC(=O)[C@@H]4CCCN4C(=O)[C@H](CC(=O)O)NC(=O)[C@H](C)NC3=O)C(=O)N[C@@H](C)C(=O)N[C@@H](CCCCN)C(=O)N[C@@H](CCC(=O)O)C(=O)N[C@@H]([C@@H](C)O)C(=O)NCC(=O)N[C@@H](CSSC[C@@H](C(N)=O)NC(=O)[C@H](CCCNC(=N)N)NC(=O)[C@H](CC(N)=O)NC1=O)C(=O)N1CCC[C@H]1C(=O)N[C@@H](Cc1ccc(O)cc1)C(=O)NCC(=O)N[C@@H](CCCCN)C(=O)N2 [NOTA-HsTX1[R14A]]
IC50: 0.068 ± 0.012 nM
